System: T1, Rab3a-a-Syn fusion construct
T1 construct: single-chain fusion: 6-His-tag, Rab3a 15-186 (C137A, wild-type Q81), GSGS linker, alpha-synuclein 101-140 (not phosphorylated); pET15b, E. coli; with Alpha-synuclein
Test: malachite green phosphate release, Michaelis-Menten fit
Format: biochemical
Settings: pH 7.5, 20 mM Hepes, 2 mM MgCl2, 1 mM DTT, 37 °C; a-Syn C-terminal tail covalently fused; no free a-Syn, no SUV
Excerpt: malachite green phosphate release, Michaelis-Menten fit on Rab3a-a-Syn fusion construct

In the case of `Nc1nc2c(ncn2[C@@H]2O[C@H](COP(=O)(O)OP(=O)(O)OP(=O)(O)O)[C@@H](O)[C@H]2O)c(=O)[nH]1` [GTP], the Km is reported as 174 ± 46 µM.

Source: paper PMC9396396, “Molecular and functional interactions of alpha-synuclein with Rab3a” (The Journal of Biological Chemistry, 2022)
